The text below walks through data of PubChem BioAssay (NCI).

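The compound was tested at five concentrations on cells cultured in 96-well plates, with a 48-hour exposure period. TGI: concentration producing complete growth inhibition.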 Bounds are passed on as bounds.

Common to all, as to test: growth of human tumour cells (NCI), 48 h
In experiment [1] the test system is CAKI-1 renal.
The subject of experiment [2] is U251 CNS.
In experiment [3] the test system is LOX IMVI melanoma.
The subject of experiment [4] is SK-MEL-28 melanoma.
Experiment [5] deals with HCC-2998 colon.
The subject of experiment [6] is A498 renal.
Experiment [7] has as its system IGROV1 ovarian.
The subject of experiment [8] is RPMI-8226 leukemia.
For experiment [9], the system named is HT29 colon.
The subject of experiment [10] is HL-60(TB) leukemia.
The test system of experiment [11] is UACC-257 melanoma.
Experiment [12] concerns SW-620 colon.
Experiment [13] has as its system CCRF-CEM leukemia.
Experiment [14] deals with OVCAR-4 ovarian.
Experiment [15] deals with SR leukemia.

Consider `O=C1Nc2ccccc2C12CCNC2Cc1ccccc1` (stereo unspecified), for which the TGI in experiment [1], in [2], in experiment [3], in experiment [4], in experiment [5] and in [6] was > 100 µM throughout. Moreover, the TGI in experiment [7], in [8], in [9], in experiment [10], in [11] and in [12] was > 100 µM in each case. The TGI in experiment [13] and in [14] was > 100 µM each time.

With `N#CC1=C(N)n2c(s/c(=C\c3ccc(Cl)cc3)c2=O)=C(c2nc3ccccc3[nH]2)C1c1ccc(Cl)cc1` (stereo unspecified), the TGI in [1] came to 10.7 µM; in [2], 2.89 µM; in [3] it was 3.23 µM; in experiment [4] it was 3.03 µM; in experiment [15], 5.85 µM; in [5], 1.7 µM. Besides, the TGI amounted to 4.29 µM in experiment [6]; 9.71 µM in experiment [7]; 4.65 µM in experiment [8]; 6.45 µM in experiment [10]; 7.84 µM in experiment [11]; 3.03 µM in [12]. The TGI came to 4.23 µM in experiment [13] and 5.22 µM in experiment [14].

On to `Cc1ccc(S(=O)(=O)N/N=C(\c2nc3ccc(Cl)cc3[nH]c2=O)C(O)c2cccc([N+](=O)[O-])c2)cc1` (stereo unspecified), for which the TGI in [1], in experiment [2], in [3], in experiment [4], in experiment [15] and in experiment [5] was > 100 µM throughout. In addition, the TGI in experiment [6], in experiment [7], in [8], in [9], in experiment [10] and in experiment [11] was > 100 µM each time. Besides, the TGI in [12], in experiment [13] and in experiment [14] was > 100 µM throughout.

On to `O=C(c1ccc(Cl)cc1)c1ccc(OCCCOc2ccc(C(=O)c3ccc(Cl)cc3)cc2)cc1`, for which the TGI in experiment [1], in [2], in experiment [3], in experiment [4], in experiment [15] and in experiment [5] was > 100 µM each time. Further, the TGI in experiment [7], in experiment [8], in experiment [9], in experiment [10], in experiment [11] and in [12] was > 100 µM in each case. Further, the TGI in [13] and in experiment [14] was > 100 µM throughout.

In the case of `COc1cc2c(c(OC)c1OC)-c1ccc(SC)c(=O)cc1[C@@H](NCc1ccc(C#N)cc1)CC2`, the TGI in [1] is > 100 µM; in experiment [2], 0.00787 µM; in experiment [3], 55.1 µM; in [15] it was 18.5 µM; in experiment [5], 0.00662 µM; in [7], > 100 µM. In addition, the TGI in [8] is > 100 µM; in experiment [10], 0.0089 µM; in experiment [12], > 100 µM; in experiment [14], > 100 µM.

For `NC(CCCC(N)P(=O)(O)c1ccccc1)P(=O)(O)c1ccccc1` (stereo unspecified), the TGI in [2], in experiment [3], in experiment [4], in experiment [15], in experiment [5] and in [6] was > 261 µM each time. Further, the TGI in experiment [7], in experiment [8], in [9], in experiment [10], in experiment [11] and in [12] was > 261 µM each time. Moreover, the TGI in experiment [13] and in experiment [14] was > 261 µM throughout.

For `O=c1[nH]c(=O)n(C2OC(COP(=O)(O)OP(=O)(O)OC3OC(CO)C(O)C(O)C3O)C(O)C2O)cc1F` (stereo unspecified), the TGI in [1] is 18.3 µM; in [2] it was > 100 µM; in [3] it was 4.13 µM; in experiment [4] it was > 100 µM; in experiment [15], > 21.6 µM; in experiment [5], > 100 µM. The TGI in [6] is 7.43 µM; in experiment [7] it was 6.26 µM; in [9] it was > 100 µM; in experiment [10] it was > 100 µM; in experiment [11], 48.9 µM; in [12], > 100 µM. Besides, the TGI is > 100 µM in [13] and 7.25 µM in experiment [14].

With `COc1ccc(-c2cc(=O)c3cc4c(cc3[nH]2)OCO4)cc1OC`, the TGI in [1], in [2], in [3], in [4], in experiment [15] and in [5] was > 100 µM throughout. For the same compound, the TGI in [7], in experiment [8], in [9], in experiment [10], in experiment [12] and in [13] was > 100 µM in each case. For the same compound, in experiment [14], the TGI was > 100 µM.

Take `CC(C)(C)N=NNc1cn(C2OC(CO)C(O)C2O)c(=O)[nH]c1=O` (stereo unspecified): the TGI in [1] is > 100 µM; in experiment [3] it was > 100 µM; in experiment [4], > 100 µM; in experiment [15], 50.8 µM; in experiment [5], > 100 µM; in experiment [6], > 100 µM. Further, the TGI in [7] was > 100 µM; in experiment [8] it was 42.7 µM; in experiment [9], > 100 µM; in [10] it was > 100 µM; in [11] it was > 100 µM; in experiment [12], 34.7 µM. The compound further came in with a TGI in experiment [13] of 95.4 µM.

As to `O=C(/N=C/c1c(O)c2ccccc2oc1=O)Nc1ccccc1`, the TGI in [1] is 55.3 µM; in [2], > 100 µM; in experiment [3], > 100 µM; in experiment [4] it was > 100 µM; in experiment [15] it was > 100 µM; in experiment [5] it was > 100 µM. Further, the TGI in [6], in [7], in experiment [8], in [9], in experiment [10] and in experiment [11] was > 100 µM throughout. The TGI in experiment [12], in experiment [13] and in experiment [14] was > 100 µM in each case.
